We go through 18 molecules from paper PMC3997423, “Identification and HLA-Tetramer-Validation of Human CD4^+ and CD8^+ T Cell Responses against HCMV Proteins IE1 and IE2” (PLoS ONE, 2014).

One assay addresses HLA-DRB1*03:01 (Homo sapiens, UniProt P01903+P01911, A100K/A102G/A103R/A169T/F55Y/I96L/K41T/L162R/M171V/P40S/Q125H/Q178H/Q39Y/R42S/S66N/T106N/T262R/W38E/Y61H). The experiment in a line: Peptide-HLA class II binding affinity. The following applies: recombinant HLA class II α- and β-chains refolded with graded peptide, 48 h, 18°C; LOCI; ED50; read-out: Measured affinity.
A further assay deals with T1, HLA-DRB3*01:01 (Homo sapiens, UniProt P01903+P79483).
T1 construct: made in house
The experiment in a line: Peptide-HLA class II binding affinity. The following applies: recombinant HLA class II α- and β-chains refolded with graded peptide, 48 h, 18°C; LOCI; ED50; read-out: Measured affinity.

The next assay addresses HLA-DRB1*07:01 (Homo sapiens, UniProt P01903+P01911, A100R/A102G/A103Q/D57E/D86V/E43K/F76Y/K127E/L162R/M171V/P40G/Q125H/Q99D/R33Q/R42Y/R54Q/S133A/S66F/T210M/V115G/Y107V/Y59L/Y89S). The experiment in a line: Peptide-HLA class II binding affinity. The conditions noted are these: read-out: measured affinity.
In the next assay the target is HLA-DRB1*15:01 (Homo sapiens, UniProt P01903+P01911). The experiment in a line: Peptide-HLA class II binding affinity. The following applies: read-out: measured affinity.
The target in a further assay is HLA-DRB1*01:01 (Homo sapiens, UniProt P01903+P01911, A100R/D57E/F55L/F60I/F76Y/I96L/L162R/M171V/P40L/Q125E/R42F/V115G/Y59C). The experiment in a line: Peptide-HLA class II binding affinity. The following applies: read-out: measured affinity.
Another assay relates to CD8^+ T cells. The experiment in a line: Ex vivo peptide-HLA class I tetramer staining. The class given is cell-based, human. The following applies: peptide-C*07:02 tetramer, responding donors.
The next assay deals with HLA-B*40:01 (Homo sapiens, UniProt P01889, A65T/A93T/A95T/D138N/D98Y/E176V/E69K/N87E/Q56L/Q94N/R180L/S121R/S35A/S48T/T167S/V36M/W171L/Y33H/Y91S). The experiment in a line: Peptide-HLA class I binding affinity. The following applies: read-out: Measured affinity.
The target in another assay is HLA-B*55:01 (Homo sapiens, UniProt P01889, A329T/C349S/D138N/D201E/E187T/E204Q/K202T/L119W/R155S/R180L/S121T/S35A/S48A/V127L/V306I/V36M/Y140L). The experiment in a line: Peptide-HLA class I binding affinity. The following applies: read-out: Measured affinity.
The next assay concerns the target HLA-A*03:01 (Homo sapiens, UniProt P04439). The assay is described as follows: biochemical.
The target of a further assay is HLA-C*06:02 (Homo sapiens, UniProt P10321, A176E/A330V/C350S/L171W/L180W/L218V/M285V/M309V/M331V/N104K/P208H/Q277E/Q291P/R121W/S101N/S123Y/S297R/T329A/T363A/V319A/V328M). The assay is described as follows: Peptide-HLA class I binding affinity. The conditions noted are these: read-out: Measured affinity.
The target of another assay is HLA-B*08:01 (Homo sapiens, UniProt P01889, A93T/A95T/D138N/E176V/E187T/K202T/Q94N/R180D/S35A/V36M/Y33D/Y91F). The assay is described as follows: biochemical.
For the next assay, the target named is HLA-A*01:01 (Homo sapiens, UniProt P04439, A114D/A174V/A182V/D101N/D185E/E176A/E190D/L180R/Q94H/R68K/S129P/T187R/V100A/V91M/W191G). The assay is described as follows: Peptide-HLA class I binding affinity. The following applies: read-out: Measured affinity.
The next assay has as its target HLA-A*68:01 (Homo sapiens, UniProt P04439, A269V/D185E/E176V/E277Q/E87N/F33Y/G231S/I121M/I166T/I218V/L180W/L300P/L318F/N151K/P208A/P217A/Q86R/R169H/T345S). The assay is described as follows: Peptide-HLA class I binding affinity. The following applies: read-out: Measured affinity.
The next assay has as its target HLA-DRB1*13:01 (Homo sapiens, UniProt P01903+P01911, A100E/A169T/K41T/L162R/M171V/P40S/Q125H/Q178H/Q39Y/Q99D/R42S/S66N/T262R/W38E/Y61H). The assay is described as follows: Peptide-HLA class II binding affinity. The conditions noted are these: read-out: measured affinity.
A further assay concerns the target HLA-B*13:02 (Homo sapiens, UniProt P01889, A65T/A93T/A95T/D138N/D201E/D98Y/E176V/E204Q/E69M/E70A/G107R/K202T/L105A/L119W/N104T/N87E/Q94N/R106L/R155S/R169L/R180L/S101N/S121T/S35A/S48T/V127L/V36M/Y140L/Y91S). The experiment in a line: Peptide-HLA class I binding affinity. The conditions noted are these: read-out: Measured affinity.

Where no end group is shown, it is not given here.

HLA-DRB1*03:01, sequence (P01903 26-254 limits assumed, other chains not shown): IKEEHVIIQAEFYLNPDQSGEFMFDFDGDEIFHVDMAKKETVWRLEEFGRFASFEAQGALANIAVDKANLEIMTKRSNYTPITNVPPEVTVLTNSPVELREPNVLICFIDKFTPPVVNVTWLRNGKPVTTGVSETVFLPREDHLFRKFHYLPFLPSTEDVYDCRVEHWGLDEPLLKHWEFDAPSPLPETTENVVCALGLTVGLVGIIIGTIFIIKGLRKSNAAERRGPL
Experimental for CD8^+ T cells: To tetramerize the resulting peptide-HLA class I monomers, Streptavidin-PE or Streptavidin-APC (Biolegend, San Diego, USA) was sequentially added over 60 min at a 1∶4 molar ratio of Streptavidin to peptide-HLA-I monomers. PBMCs were resuspended in 25 µl PE- and APC-conjugated tetramer and incubated for 20 min at RT followed by 30 min incubation with anti-CD3-Pacific blue, anti-CD4-APC/Cy7, and anti-CD8-PerCP antibody (Biolegend, San Diego, USA).
Experimental for HLA-A*01:01: (§1) Peptide-HLA class I and II binding affinities were determined as previously described [44], [45].
(§2) Complex formation was detected using a proximity-based Luminescent Oxygen Channeling Immunoassay assay and the peptide concentration leading to half-saturation (ED50) was determined as previously described [44], [45]. Under the limited receptor concentrations used here, the ED50 reflects the affinity of the interaction.
Experimental for HLA-A*03:01: as §1, §2
Experimental for HLA-A*68:01: as §1, §2
Experimental for HLA-B*13:02: as §1, §2
Experimental for HLA-B*40:01: as §1, §2
Experimental for HLA-B*55:01: as §1, §2
Experimental for HLA-C*06:02: as §1, §2
Experimental for HLA-DRB1*01:01: as §1, §2
Experimental for HLA-DRB1*03:01: as §1, §2
Experimental for HLA-DRB1*07:01: as §1, §2
Experimental for HLA-DRB1*13:01: as §1, §2
Experimental for HLA-DRB1*15:01: as §1, §2
Experimental for HLA-DRB3*01:01: as §1, §2

Consider `CC[C@H](C)[C@H](NC(=O)[C@H](CCCCN)NC(=O)[C@@H](NC(=O)[C@H](CCCNC(=N)N)NC(=O)CNC(=O)[C@H](CCCNC(=N)N)NC(=O)[C@H](CCCNC(=N)N)NC(=O)[C@@H](N)[C@@H](C)O)C(C)C)C(=O)N[C@@H](CC(=O)O)C(=O)N[C@@H](CCC(=O)O)C(=O)N[C@H](C(=O)N[C@@H](CO)C(=O)N[C@@H](CCCNC(=N)N)C(=O)N[C@@H](CCSC)C(=O)N[C@@H](Cc1ccccc1)C(=O)O)C(C)C` [IE2_356–370], for which the Kd was 0.009 µM on HLA-DRB1*03:01 and 0.002 µM at HLA-DRB3*01:01.

As for `CC[C@H](C)[C@H](NC(=O)CNC(=O)[C@@H](N)CCCCN)C(=O)N[C@@H](CCC(N)=O)C(=O)N[C@H](C(=O)N[C@H](C(=O)N[C@@H](Cc1ccc(O)cc1)C(=O)N[C@H](C(=O)N[C@@H](CCCNC(=N)N)C(=O)N[C@@H](CC(N)=O)C(=O)N[C@@H](Cc1c[nH]cn1)C(=O)N[C@@H](CCC(=O)O)C(=O)N[C@H](C(=O)N[C@@H](CCCCN)C(=O)N[C@@H](CO)C(=O)O)C(C)C)[C@@H](C)O)[C@@H](C)CC)[C@@H](C)CC` [IE2_408–422], the Kd on HLA-DRB1*07:01 was found to be 0.053 µM; on HLA-DRB1*15:01 it was 0.045 µM. In the case of `CSCC[C@H](NC(=O)[C@H](CC(C)C)NC(=O)[C@H](Cc1ccccc1)NC(=O)[C@@H]1CCCN1C(=O)[C@@H](NC(=O)[C@H](CO)NC(=O)[C@H](CC(C)C)NC(=O)[C@H](C)N)[C@@H](C)O)C(=O)N[C@@H](CCC(=O)O)C(=O)N[C@@H](Cc1c[nH]cn1)C(=O)N[C@H](C(=O)N[C@@H](CCSC)C(=O)N1CCC[C@H]1C(=O)N[C@H](C(=O)N[C@H](C(=O)O)[C@@H](C)O)C(C)C)[C@@H](C)O` [IE2_438–452], the Kd at HLA-DRB1*01:01 was 0.006 µM. Turning to CRVLCCYVL [IE1_309–317], the “TMRI (%)” value in the assay on CD8^+ T cells is 0.8–8.0%. As to EEAIVAYTL [IE1_381–389], at HLA-B*40:01, the Kd amounted to 0.013 µM.

For FLMEHTMPVTHPPEV [IE2_443–457], at HLA-DRB1*01:01, the Kd is 0.002 µM. Take FPKTTNGCSQA [IE1_221–231]: the Kd on HLA-B*55:01 worked out at 0.138 µM. For KEVNSQLSL [IE1_42–50/IE2_42–50], on HLA-B*40:01, the Kd was 0.025 µM. For the molecule KLGGALQAK [IE1_184–192], the Kd on HLA-A*03:01 came out at 0.216 µM. With QIKVRVDM [IE1_88–95], the Kd on HLA-C*06:02 came to 0.003 µM; at HLA-B*08:01, 0.579 µM.

As for QIKVRVDMV [IE1_88–96], the Kd on HLA-B*08:01 amounted to 0.994 µM.

Regarding RIKEHMLKK [IE1_99–107], the Kd on HLA-A*03:01 was 0.542 µM. For the molecule TSDACMMTMY [IE1_290–299], the Kd on HLA-A*01:01 amounted to 0.009 µM. Turning to TTFLQTMLR [IE1_33–41/IE2_33–41], the Kd at HLA-A*68:01 was 0.001 µM. Turning to VKQIKVRVDMVRHRI [IE1_86–100], the Kd at HLA-DRB1*03:01 turned out to be 0.004 µM; on HLA-DRB3*01:01, 0.109 µM. As for VRHRIKEHMLKKYTQ [IE1_96–110], the Kd at HLA-DRB1*13:01 is 0.002 µM. With VRVDMVRHRIKEHML [IE1_91–105], the Kd is 0.01 µM at HLA-DRB1*03:01, > 5 µM on HLA-DRB3*01:01 and 0.002 µM on HLA-DRB1*13:01. Consider YILGADPLRV [IE1_354-363], for which the Kd at HLA-B*13:02 was determined as 0.087 µM.
